Assay results: patent publication US5422118A, “Transdermal administration of amines with minimal irritation and high transdermal flux rate” (priority 1992, dated 1995)
Structures can show the parent of a compound that is named as a salt. Where two headings read alike, the source gives them in different places.

How the values were obtained:
human forearm skin [1] = assay: Procedure B primary irritation study in humans (Finn Chambers, 24 hours, 0-4 erythema score)
Text: Procedure B Primary Irritation Study in Human- Alternative Method Finn Chambers (Epitest, Ltd OY, Tuusula, Finland) for epicutaneous testing of irritation on Scanpor adhesive (Norgesplaster A/S, Norway; 10 chambers) were used to test the primary irritancy of the test compound or composition. The formulations were introduced into the Finn Chambers using the following procedures. The adhesive covering was removed and the filter paper dots were placed into the chambers to be used. A disposable pasteur pipette was used to add one drop of formulation onto the filter paper. The pipette was then discarded. This was repeated for each formulation, up to 10 formulations. The subjects' forearm was lowered onto the scanpor adhesive and pressure was applied to insure adhesion. Two strips of 2" paper tape were overlapped over the scanpor adhesive. This remained in place for 24 hours, at which time it was removed and scored immediately using the table below. […]
Procedure B was used to evaluate the irritancy of physiologically active amines with or without complexation or solvation as described in more detail below.

skin [2] = conditions: WO 86/00806; cited from earlier work
skin [3] = conditions: WO 86/00806; cited from earlier work; remark: listed apart in the source
[4] = Transdermal flux rate through human skin in vitro (flow-through diffusion cell)
Description: A surgically-removed human skin source was used for all in vitro diffusion cell tests. […] Briefly, the full-thickness skin was immersed in distilled water heated to 60±1 degrees C for 45 seconds. The epidermal-stratum corneum layers were then peeled from the dermis. The epidermis-stratum corneum layers were then excised with a cork borer into circular disks 1.4 cm in diameter.
The skin was then mounted onto a Teflon flow-through diffusion cell. […] The skin sample of the donor portion of the diffusion cell was secured in place into the receptor cell. The flow-through cell consisted of a Teflon receptor cell with an exposed skin surface area of 0.32 cm^2 and a receptor cell volume of 0.13 mi. Sink conditions were maintained by pumping phosphate-buffered saline under the skin in the receptor cell at about 3 ml/hr. Thus, the receptor volume was replaced about 23 times per hour. These cells were then mounted on a water-jacketedbracket which maintained the receptor solution in the cells at 33 degrees C. The receptor media which was pumped under the cells was degassed in order to reduce air bubble formation under the skin. […]
Liquid scintillation fluor was added directly to the sample vials so that they could be measured with minimal liquid transfers and handling. The sample vials were then analyzed with appropriate quench correction techniques by liquid scintillation spectroscopy. […]

skin [5] = conditions: oral form; Physician's Desk Reference; cited from earlier work
human forearm skin [6] = conditions: in vivo
Description: Patches of the saturated film 2 cm^2 in area were placed by test subjects on their own forearm skin and held in place by clear, nonocclusive adhesive (Tegaderm), allowing constant observation of the skin under the patch. After 17 hours, skin damage was evaluated by visual observation. The damage was ranked using the following scale: 1 (no discoloration, no erythema); 2 (pink coloration, slight erythema); 3 (reddening, moderate erythema, no burning); 4 (reddening and burning, moderate erythema); 5 (erythema and edema, with or without burning); 6 (severe erythema, edema, and burning); and 7 (severe erythema, severe burning, blistering, and edema).
A physiologically active amine in the free base form can be evaluated for skin irritancy by Procedures A, B, or C, set out above. Alternatively, irritation can be determined by other conventional patch test involving maintaining the amine in contact with the skin for 24 hours, and then observing the skin. The results are evaluated using the scales provided for Procedures A, B, or C as defined herein.

skin [7] = test system: skin
rabbit back skin = assay: Procedure C primary skin irritation tests in animals; conditions: 24 hour exposure, scored 24 and 72 hours
Description: Procedure C Primary Skin Irritation Tests in Animals Tests were performed on young adult albino rabbits (New Zealand White rabbits). Six rabbits were used for each test. The rabbits were prepared for the test by clipping the hair from the backs of the rabbits and any rabbit showing skin damage from the clipping was rejected from the testing. The application sites for the transdermal drug delivery (TDD) patch was intact skin. As an example, a formulation containing the test composition was incorporated into Poroplastic® transdermal patches. One TDD patch containing the test material was applied to one side of the rabbit's back. […] A one (1) inch square gauze patch, two single layers thick, was used to cover the test TDD patch. The animals were immobilized with patches secured in place by adhesive tape. The entire trunk of the animal was then wrapped with an impervious material for the twenty-four (24) hour exposure period. After 24 hours of exposure the patches were removed and the resulting reactions evaluated on the basis of the scoring system indicated below. Observations were again made at the end of a total of 72 hours (48 hours after the first reading). […]
After 24 hours of exposure the patches were removed and the resulting reactions evaluated on the basis of scores as described above.

[8] = cited from earlier work
[9] = Description: Given this information and the empirically determined transdermal flux rate of the material, the required patch size in centimeters^2 for effective dosing can be determined. […] The estimated patch size is determined by dividing the calculated therapeutically effective dose rate by the in vitro transdermal flux rate.
The estimated patch size for such a composition can be calculated as described in detail above. […] Since water soluble salt forms of physiologically active amines are not at all soluble in nonpolar, nonvolatile solvents, these solvents cannot be used to increase their transdermal flux rate.
The transdermal patch sizes required to deliver an effective dosage of a selected group of physiologically active amines were evaluated as described above. […] DEET, however, is not an appropriate solvent for extended transdermal drug delivery because it is not a United States Pharmacopeia accepted ingredient.

[10] = Procedure B, human forearm, 24 hours, score 0-4

CCCCCCCCCCCCCCCCCC(=O)OCCCC [butyl stearate]
Erythema Rating (human forearm skin [1]; in vivo): 0

CCCCCCCC/C=C\CCCCCCCC(=O)OCCC [propyl oleate]
Erythema Rating (human forearm skin [1]; [10]): 0

CCCCCCCCCCCCCC(=O)OC(C)C [isopropyl myristate]
Erythema Rating (human forearm skin [1]; in vivo): 0.3

CN1CCC(=C2c3ccccc3CCc3cccnc32)CC1 [azatadine]
dermal irritation or sensitization (in words) (skin [2]): no dermal irritation or sensitization | dermal penetration (in words) (skin [3]): good dermal penetration

CN(C)CCOC(c1ccccc1)c1ccccc1 [diphenhydramine]
Transdermal flux rate ([4]; Table 2, applicant's compositions): 55.8 μg/cm2/hr

COc1ccc(CCN(C)CCCC(C#N)(c2ccc(OC)c(OC)c2)C(C)C)cc1OC (stereo not drawn) [oral form of Varapamil, Varapamil]
adverse skin reactions (in words) (skin [5]): arthralgia and rash, exanthema, hair loss, hyperkeratosis, macules, StevenJohnsons syndrome, and erythema multiforme

OCCOCCN1CCN(C(c2ccccc2)c2ccc(Cl)cc2)CC1 (stereo not drawn) [hydroxyzine]
irritation rating (human forearm skin [1]; in vivo): ≤ 2

CN(C)CCOC(c1ccccc1)c1ccccc1 [diphenhydramine hydrochloride]
transdermal flux / skin penetration (in words) ([4]; human skin): do not permeate the skin with a therapeutically effective flux rate

CN(C)CCC(c1ccc(Cl)cc1)c1ccccn1 (stereo not drawn) [chlorpheniramine maleate]
Irritation Rating (1-7) (human forearm skin [6]): 1.0 | Erythema Rating (human forearm skin [1]; Procedure B, human forearm, 24 hours, score 0-4, listed as Chlorpheniramine maleate (1:1 molar ratio)): 0.0 | skin irritation (in words) (skin [7]; procedure not specified): minimally irritating

CN1CCCC1c1cccnc1 (stereo not drawn) [nicotine]
primary irritation score (rabbit back skin): less than 2 | Clearance ([8]; Table 2): 1200 mL/min | effective blood concentration ([8]; Table 2): 13 ng/mL | cal dose rate ([9]; Table 2, clearance times effective blood level): 936 µg/h

CCCCCCCC/C=C\CCCCCCCC(=O)O [Oleic acid]
Erythema Rating (human forearm skin [1]; in vivo): 0

CN(C)CCC(c1ccc(Cl)cc1)c1ccccn1 (stereo not drawn) [Chlorpheniramine Salicylate (1:1 M), Chlorpheniramine Salicylate]
Irritation Rating (1-7) (human forearm skin [6]): 1.0 | Erythema Rating (human forearm skin [1]; Procedure B, human forearm, 24 hours, score 0-4, listed as Chlorpheniramine salicylate (1:1 molar ratio)): 0.0

CCCCCCCC/C=C\CCCCCCCC(=O)OC(C)C [isopropyl oleate]
Erythema Rating (human forearm skin [1]; [10]): 0

CN(C)CCC(c1ccc(Cl)cc1)c1ccccn1 (stereo not drawn) [chlorpheniramine]
Erythema Rating (human forearm skin [1]; [10]): 4.0 | estimated flux needed to achieve therapeutic blood levels [9]: 90 µg/h

C=CCCCCCCCCC(=O)O [Undecylenic acid]
Erythema Rating (human forearm skin [1]; in vivo): 0

CN(C)CCC(c1ccc(Br)cc1)c1ccccn1 (stereo not drawn) [brompheniramine maleate]
skin irritation (in words) (skin [7]; in vivo): minimally irritating

CN(C)CC[C@@H](c1ccc(Br)cc1)c1ccccn1 [dexbrompheniramine]
effective blood concentration ([8]; in vivo): 5.3 ng/mL | cal dose rate [9]: 98 µg/h

CCCCC/C=C\C/C=C\CCCCCCCC(=O)O [Linoleic acid]
Erythema Rating (human forearm skin [1]; [10]): 0
